The results in this text go back to US11006600B2, “Rice cultivar designated ‘CL272’” (Board of Supervisors of Louisiana State University and …, priority 2016, dated 2021).

For the first assay, the system named is rice cultivar 'CL272'. Put plainly: Herbicide tolerance and susceptibility characteristics of rice variety 'CL272'. In kind it is in vivo, Oryza sativa. The note with it: at levels of the herbicide that would normally inhibit the growth of a rice plant. From the text: Among others, the herbicide tolerance and susceptibility characteristics of ‘CL272’ include or are expected to include the following. These characteristics are in some cases based on actual observations to date, and in other cases reflect assumptions based on direct descent from ‘CL161’: […]
In the case of `CCOC(=O)c1ccccc1S(=O)(=O)NC(=O)Nc1nc(Cl)cc(OC)n1` [chlorimuron ethyl], the “response of 'CL272' rice to the herbicide (resistant / sensitive)” value (from here on “response … (resistant / sensitive)”) is “sensitive”.

For the molecule `COCc1cnc(C2=NC(C)(C(C)C)C(=O)N2)c(C(=O)O)c1` (centres unmarked) [imazamox], the “response … (resistant / sensitive)” value is “resistant”.

Consider `Cc1cnc(C2=NC(=O)C(C)(C(C)C)N2)c(C(=O)O)c1` (centres unmarked) [imazapic], for which the “response … (resistant / sensitive)” value is on record as “resistant”.

Consider `CC(C)C1(C)N=C(c2ncccc2C(=O)O)NC1=O` (centres unmarked) [imazapyr], for which the “response … (resistant / sensitive)” value is given as “resistant”.

On to `CC(C)C1(C)N=C(c2nc3ccccc3cc2C(=O)O)NC1=O` (centres unmarked) [imazaquin], for which the “response … (resistant / sensitive)” value was “resistant”.

Regarding `CCc1cnc(C2=NC(C)(C(C)C)C(=O)N2)c(C(=O)O)c1` (centres unmarked) [imazethapyr], the “response … (resistant / sensitive)” value is recorded as “resistant”.

On to `COC(=O)c1ccccc1S(=O)(=O)NC(=O)Nc1nc(C)nc(OC)n1` [metsulfuron methyl], for which the “response … (resistant / sensitive)” value is on record as “resistant”.

As for `COc1cc(OC)nc(NC(=O)NS(=O)(=O)c2ncccc2C(=O)N(C)C)n1` [nicosulfuron], the “response … (resistant / sensitive)” value was “resistant”.

As to `CCS(=O)(=O)c1cccnc1S(=O)(=O)NC(=O)Nc1nc(OC)cc(OC)n1` [rimsulfuron], the “response … (resistant / sensitive)” value is given as “sensitive”.

Regarding `COC(=O)c1ccccc1S(=O)(=O)NC(=O)Nc1nc(C)cc(C)n1` [sulfometuron methyl], the “response … (resistant / sensitive)” value is “sensitive”.

`COC(=O)c1sccc1S(=O)(=O)NC(=O)Nc1nc(C)nc(OC)n1` [thifensulfuron methyl]: the “response … (resistant / sensitive)” value was “resistant”.

For the molecule `COC(=O)c1ccccc1S(=O)(=O)NC(=O)N(C)c1nc(C)nc(OC)n1` [tribenuron methyl], the “response … (resistant / sensitive)” value is given as “resistant”.

The assay is the same for the next values; noted with them: in vivo.
`COCc1cnc(C2=NC(C)(C(C)C)C(=O)N2)c(C(=O)O)c1` (centres unmarked) [imazamox]: the “resistance of 'CL272' rice to imidazolinone herbicides, general statement” value was “highly resistant”.

On to `CCc1cnc(C2=NC(C)(C(C)C)C(=O)N2)c(C(=O)O)c1` (centres unmarked) [imazethapyr], for which the “resistance of 'CL272' rice to imidazolinone herbicides, general statement” value is listed as “highly resistant”.
